Data reported in BindingDB's records for doi:10.1021/jm061268p (University of Arizona, 2007).

target: T1, Cholecystokinin receptor type A (Homo sapiens, UniProt P32238); assay: Displacement of [125I]CCK8-SO3 from human CCK1 receptor expressed in HEK293 cells
T1 sequence (P32238 whole entry): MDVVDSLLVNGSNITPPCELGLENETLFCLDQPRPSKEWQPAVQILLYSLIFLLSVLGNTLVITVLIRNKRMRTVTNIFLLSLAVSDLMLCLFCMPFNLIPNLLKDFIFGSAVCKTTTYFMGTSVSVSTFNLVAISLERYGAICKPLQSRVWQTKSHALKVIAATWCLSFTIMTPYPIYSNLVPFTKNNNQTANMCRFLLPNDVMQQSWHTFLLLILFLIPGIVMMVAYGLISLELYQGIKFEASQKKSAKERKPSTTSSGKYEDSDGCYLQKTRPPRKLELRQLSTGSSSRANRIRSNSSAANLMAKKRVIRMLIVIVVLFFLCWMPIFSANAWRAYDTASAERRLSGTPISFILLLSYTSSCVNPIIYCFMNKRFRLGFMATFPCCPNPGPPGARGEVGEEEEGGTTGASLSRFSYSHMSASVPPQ

Structure (SMILES)	IC50
CCCC[C@@H](NC(=O)[C@H](Cc1c[nH]c2ccccc12)NC(=O)OC(C)(C)C)C(=O)N[C@H](CC(=O)O)C(=O)N[C@H](Cc1ccccc1)C(=O)NNC(=O)[C@H](Cc1ccccc1)NC(=O)CNC(=O)[C@@H](C)NC(=O)[C@@H](N)Cc1ccc(O)cc1 [H-Tyr-D-Ala-Gly-Phe-NH-NH-D-Phe-D-Asp-D-Nle-Trp-Boc]	5.05 nM
CCCC[C@H](NC(=O)[C@H](CC(=O)O)NC(=O)[C@@H](N)Cc1ccccc1)C(=O)N[C@H](Cc1c[nH]c2ccccc12)C(=O)NNC(=O)[C@H](Cc1ccccc1)NC(=O)CNC(=O)[C@@H](C)NC(=O)[C@@H](N)Cc1ccc(O)cc1 [H-Tyr-D-Ala-Gly-Phe-NH-NH-D-Trp-Nle-Asp-Phe-H]	5.15 nM
CCCC[C@@H](NC(=O)[C@@H](CC(=O)O)NC(=O)[C@H](N)Cc1ccccc1)C(=O)N[C@@H](Cc1c[nH]c2ccccc12)C(=O)NNC(=O)[C@H](Cc1ccccc1)NC(=O)CNC(=O)[C@@H](C)NC(=O)[C@@H](N)Cc1ccc(O)cc1 [H-Tyr-D-Ala-Gly-Phe-NH-NH-Trp-D-Nle-D-Asp-D-Phe-H]	5.72 nM
